Data: PubChem BioAssay (NCI)
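Cultured in 96-well plates, cells were exposed to test compound for 48 hours across five concentrations. Here, GI50 denotes the concentration required for 50% inhibition of growth. TGI is the concentration that stops growth completely.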

Legend:
Test in all cases: NCI anticancer screen, dose series, 48 h
786-0 renal = test system: 786-0 renal
A498 renal = test system: A498 renal
ACHN renal = test system: ACHN renal
BT-549 breast = test system: BT-549 breast
CAKI-1 renal = test system: CAKI-1 renal
CCRF-CEM leukemia = test system: CCRF-CEM leukemia
DU-145 prostate = test system: DU-145 prostate
EKVX NSCLC = test system: EKVX NSCLC
HCT-116 colon = test system: HCT-116 colon
HCT-15 colon = test system: HCT-15 colon
HOP-62 NSCLC = test system: HOP-62 NSCLC
HOP-92 NSCLC = test system: HOP-92 NSCLC
HT29 colon = test system: HT29 colon
LOX IMVI melanoma = test system: LOX IMVI melanoma
MALME-3M melanoma = test system: MALME-3M melanoma
MCF7 breast = test system: MCF7 breast
MDA-MB-231 breast = test system: MDA-MB-231 breast
MDA-MB-435 = test system: MDA-MB-435
NCI-H226 lung = test system: NCI-H226 lung
NCI/ADR-RES ovarian = test system: NCI/ADR-RES ovarian
OVCAR-8 ovarian = test system: OVCAR-8 ovarian
RXF 393 renal = test system: RXF 393 renal
SF-268 CNS = test system: SF-268 CNS
SF-295 CNS = test system: SF-295 CNS
SF-539 CNS = test system: SF-539 CNS
SK-MEL-2 melanoma = test system: SK-MEL-2 melanoma
SK-MEL-28 melanoma = test system: SK-MEL-28 melanoma
SN12C renal = test system: SN12C renal
SNB-19 CNS = test system: SNB-19 CNS
SNB-75 CNS = test system: SNB-75 CNS
SR leukemia = test system: SR leukemia
TK-10 renal = test system: TK-10 renal
U251 CNS = test system: U251 CNS
UACC-62 melanoma = test system: UACC-62 melanoma
UO-31 renal = test system: UO-31 renal
A549 NSCLC = test system: A549 NSCLC
COLO 205 colon = test system: COLO 205 colon
HCC-2998 colon = test system: HCC-2998 colon
KM12 colon = test system: KM12 colon
M14 melanoma = test system: M14 melanoma
NCI-H23 lung = test system: NCI-H23 lung
NCI-H460 lung = test system: NCI-H460 lung
OVCAR-3 ovarian = test system: OVCAR-3 ovarian
OVCAR-4 ovarian = test system: OVCAR-4 ovarian
OVCAR-5 ovarian = test system: OVCAR-5 ovarian
PC-3 prostate = test system: PC-3 prostate
RPMI-8226 leukemia = test system: RPMI-8226 leukemia
SK-MEL-5 melanoma = test system: SK-MEL-5 melanoma
SK-OV-3 ovarian = test system: SK-OV-3 ovarian
SW-620 colon = test system: SW-620 colon
T-47D breast = test system: T-47D breast
UACC-257 melanoma = test system: UACC-257 melanoma

CCCCCCNC(=O)Nc1ccc2cc3ccc(NC(=O)NCCCCCC)cc3nc2c1
GI50 (786-0 renal): 2.52 µM | TGI (786-0 renal): > 26.6 µM | GI50 (A498 renal): 1.88 µM | TGI (A498 renal): > 28.7 µM | GI50 (ACHN renal): 43.5 µM | TGI (ACHN renal): > 100 µM | GI50 (BT-549 breast): 4.09 µM | TGI (BT-549 breast): > 100 µM | GI50 (CAKI-1 renal): > 26.5 µM | TGI (CAKI-1 renal): > 100 µM | GI50 (CCRF-CEM leukemia): 0.258 µM | TGI (CCRF-CEM leukemia): 0.714 µM | GI50 (DU-145 prostate): 2 µM | TGI (DU-145 prostate): > 100 µM | GI50 (EKVX NSCLC): 5.79 µM | TGI (EKVX NSCLC): > 100 µM | GI50 (HCT-116 colon): 0.358 µM | TGI (HCT-116 colon): 1.25 µM | GI50 (HCT-15 colon): > 100 µM | TGI (HCT-15 colon): > 100 µM | GI50 (HOP-62 NSCLC): 1.81 µM | TGI (HOP-62 NSCLC): 4.88 µM | GI50 (HOP-92 NSCLC): 1.67 µM | TGI (HOP-92 NSCLC): 4.07 µM | GI50 (HT29 colon): 2.24 µM | TGI (HT29 colon): > 100 µM | GI50 (LOX IMVI melanoma): 0.268 µM | TGI (LOX IMVI melanoma): 0.737 µM | GI50 (MALME-3M melanoma): 1.63 µM | TGI (MALME-3M melanoma): 3.12 µM | GI50 (MCF7 breast): 0.396 µM | TGI (MCF7 breast): 1.57 µM | GI50 (MDA-MB-231 breast): 1.54 µM | TGI (MDA-MB-231 breast): 3.11 µM | GI50 (MDA-MB-435): 0.406 µM | TGI (MDA-MB-435): 1.51 µM | GI50 (NCI-H226 lung): 4.95 µM | TGI (NCI-H226 lung): > 100 µM | GI50 (NCI/ADR-RES ovarian): 83.7 µM | TGI (NCI/ADR-RES ovarian): > 100 µM | GI50 (OVCAR-8 ovarian): 0.614 µM | TGI (OVCAR-8 ovarian): 2.88 µM | GI50 (RXF 393 renal): 1.4 µM | TGI (RXF 393 renal): 5.51 µM | GI50 (SF-268 CNS): 1.2 µM | TGI (SF-268 CNS): 2.96 µM | GI50 (SF-295 CNS): 2.32 µM | TGI (SF-295 CNS): 6.04 µM | GI50 (SF-539 CNS): 1.58 µM | TGI (SF-539 CNS): 3 µM | GI50 (SK-MEL-2 melanoma): 1.9 µM | TGI (SK-MEL-2 melanoma): 4.01 µM | GI50 (SK-MEL-28 melanoma): 1.72 µM | TGI (SK-MEL-28 melanoma): 3.14 µM | GI50 (SN12C renal): 1.08 µM | TGI (SN12C renal): 2.51 µM | GI50 (SNB-19 CNS): 1.73 µM | TGI (SNB-19 CNS): 3.36 µM | GI50 (SNB-75 CNS): 1.45 µM | TGI (SNB-75 CNS): 3.16 µM | GI50 (SR leukemia): 0.284 µM | TGI (SR leukemia): 1.27 µM | GI50 (TK-10 renal): 23.5 µM | TGI (TK-10 renal): > 100 µM | GI50 (U251 CNS): 0.336 µM | TGI (U251 CNS): 1.29 µM | GI50 (UACC-62 melanoma): 1.21 µM | TGI (UACC-62 melanoma): 2.53 µM | GI50 (UO-31 renal): > 100 µM | TGI (UO-31 renal): > 100 µM

Cc1cc(C)c(C#N)c(SC(=S)NC(=O)c2ccc(Cl)cc2)n1
TGI (786-0 renal): > 100 µM | TGI (A498 renal): > 100 µM | TGI (A549 NSCLC): > 100 µM | TGI (ACHN renal): > 100 µM | TGI (BT-549 breast): > 100 µM | TGI (CAKI-1 renal): > 100 µM | TGI (CCRF-CEM leukemia): > 100 µM | TGI (COLO 205 colon): > 100 µM | TGI (DU-145 prostate): > 100 µM | TGI (EKVX NSCLC): > 100 µM | TGI (HCC-2998 colon): > 100 µM | TGI (HCT-116 colon): > 100 µM | TGI (HCT-15 colon): > 100 µM | TGI (HOP-62 NSCLC): > 100 µM | TGI (HOP-92 NSCLC): > 100 µM | TGI (KM12 colon): > 100 µM | TGI (LOX IMVI melanoma): > 100 µM | TGI (M14 melanoma): > 100 µM | TGI (MCF7 breast): > 100 µM | TGI (MDA-MB-231 breast): > 100 µM | TGI (MDA-MB-435): > 100 µM | TGI (NCI-H23 lung): > 100 µM | TGI (NCI-H460 lung): > 100 µM | TGI (NCI/ADR-RES ovarian): > 100 µM | TGI (OVCAR-3 ovarian): > 100 µM | TGI (OVCAR-4 ovarian): > 100 µM | TGI (OVCAR-5 ovarian): > 100 µM | TGI (OVCAR-8 ovarian): > 100 µM | TGI (PC-3 prostate): > 100 µM | TGI (RPMI-8226 leukemia): > 100 µM | TGI (RXF 393 renal): > 100 µM | TGI (SF-268 CNS): > 100 µM | TGI (SF-295 CNS): > 100 µM | TGI (SK-MEL-2 melanoma): > 100 µM | TGI (SK-MEL-28 melanoma): > 100 µM | TGI (SK-MEL-5 melanoma): > 100 µM | TGI (SK-OV-3 ovarian): > 100 µM | TGI (SNB-19 CNS): > 100 µM | TGI (SNB-75 CNS): > 100 µM | TGI (SW-620 colon): > 100 µM | TGI (T-47D breast): > 100 µM | TGI (TK-10 renal): > 100 µM | TGI (U251 CNS): > 100 µM | TGI (UACC-257 melanoma): > 100 µM | TGI (UACC-62 melanoma): > 100 µM | TGI (UO-31 renal): > 100 µM
